Data published in patent US20090209633A1, “Treatment of Pain With Resiniferatoxin and Related Analogs” (priority 2006, published 2009).
Where “and” joins values, the source holds several entries; their conditions need not be identical. Identical values can stand only once.

Columns and labels:
native TRPV1 = molecular target: T1, native TRPV1 (Rattus norvegicus, UniProt O35433); assay: Whole-cell currents in cultured embryonic DRG neurons (patch clamp); type: cell-based; conditions: for reversibility of induced current: RTX 10 and 100 nM, washout >15 min; for activation phase of whole-cell current: −60 mV
T1 construct: RTX-induced membrane currents on native TRPV1 in embryonic DRG neurons grown in culture; endogenous in cells; host or cells: primary rat E18 DRG neurons
Experimental: Electrophysiology. Whole-cell and single-channel currents were recorded from rat DRG neurons in culture and from Xenopus laevis oocytes injected with rat TRPV1 cRNA. Animals were cared for according to the standards of the National Institutes of Health (NIH). All animal use protocols were approved by Southern Illinois University School of Medicine Animal Care Committee.
Primary DRG neuronal cultures were prepared from embryonic day 18 (E18) rat embryos. Adult pregnant rats were killed with an overdose of isoflurane. DRG were dissected and the cells were dissociated by triturating with a fire-polished glass pipette. Cells were cultured in Neurobasal medium (Life Technologies, Buffalo, N.Y., USA), supplemented with 10% fetal bovine serum (FBS), and grown on poly-D-lysine-coated glass coverslips. Cells were used from 5 to 15 days after plating. Small diameter (<30 μm) rounded neurons were selected for patch-clamp experiments. […] The Giga-seal patch-clamp technique was used to record whole-cell currents. For perforated-patch recordings, the bath solution contained (mM): sodium gluconate 140, KCl 2.5, Hepes 10, MgCl2 1 and ethylene glycol bis(2-aminoethyl ether)-N,N,N′N′-tetraacetic acid (EGTA) 1.5 (pH adjusted to 7.35 with NaOH), and the pipette solution contained (mM): sodium gluconate 130, NaCl 10, KCl 2.5, Hepes 10, MgCl2 1, EGTA 1.5 and 240 μg/ml^−1 amphotericin B (pH adjusted to 7.35 with NaOH). For current-clamp experiments the pipette solution contained (mM): potassium gluconate 130, NaCl 10, MgCl2 1, EGTA 0.2, K2ATP 1 and Hepes 10; pH adjusted to 7.35 with NaOH. Extracellular solution for current- and voltage-clamp experiments contained (mM): NaCl 140, KCl 4, MgCl2 1 and Hepes 10; pH adjusted to 7.35 with NaOH. Currents were recorded using a WPC 100 patch-clamp amplifier (E.S.F. Electronic, Goettingan, Germany). Data were filtered at 10 kHz, digitized (VR-10B, Instrutech Corp., Great Neck, N.Y., USA) and stored on videotapes or directly stored in the computer using a LabView interface. For analysis of whole-cell currents, data were filtered at 1 kHz (−3 db frequency with an 8-pole low-pass Bessel filter, Warner Instruments, LPF-8) and digitized at 2 kHz.
This example tests the activation of whole-cell current in DRG neurons by RTX. We determined the properties of RTX-induced membrane currents on native TRPV1 in embryonic DRG neurons grown in culture. […] Protons were not used to elicit currents because of the presence of acid-sensitive ion channels in these neurons.

cloned TRPV1 = molecular target: T2, cloned TRPV1 (Rattus norvegicus, UniProt O35433); assay: Single-channel currents in excised (outside-out) patches from oocytes expressing cloned TRPV1; type: cell-based; conditions: for single-channel conductance / single-channel current amplitude: excised patches, cloned TRPV1; for Po: outside-out/excised patches, RTX, capsaicin 100 nM
T2 construct: expressed in transfected cells; host or cells: Xenopus laevis oocytes injected with TRPV1 cRNA
Experimental: Oocytes were obtained by an abdominal incision after anaesthetizing the frog by immersion in a 0.05% solution of 3-aminobenzoic acid ethyl ester (MS222). Animals were killed by a subcutaneous injection of a 2% solution of MS222 according to NIH guidelines. One day after separating the oocytes from the follicular layer, 50-70 nl TRPV1 cRNA was injected using a Drummond Nanoject (Drummond Scientific Co., Broomall, Pa., USA). Oocytes were used for recording from 3 days after the injection. Double-electrode voltage clamp was performed using a Warner amplifier (Warner Instruments, Hamden, Conn., USA). Data were digitized and stored on videotape or directly stored on the computer using a LabView interface (National Instruments, Austin, Tex., USA). Experiments were performed at 21-23° C. Oocytes were placed in a Perspex chamber superfused (5-10 ml min^−1) with Ca^2+-free Ringer solution containing (mM): NaCl 100, KCl 2.5 and Hepes 5; pH adjusted to 7.35 with NaOH. Current-voltage relationships were measured using 1-s voltage ramps from −80 to +80 mV.
For single-channel recording in cell-attached patches from DRG neurons, the bath solution contained (mM): potassium gluconate 140, KCl 2.5, MgCl2 1, Hepes 5 and EGTA 1.5; pH adjusted to 7.35 with NaOH. The patch pipettes were made from glass capillaries (Drummond, Microcaps), coated with Sylgard (Dow Corning, Midland, Mich., USA). For cell-attached patches, the patch pipettes were filled with a solution that contained (mM): sodium gluconate 140, NaCl 10, MgCl2 1, Hepes 5 and EGTA 1.5; pH adjusted to 7.35 with NaOH. While recording from cell-attached patches, in order to avoid differences in the driving force because of the differences in the membrane potential, the external NaCl was replaced by an equal amount of KCl in order to nullify the membrane potential. For outside-out patches, the pipette solution contained (mM): sodium gluconate 90, NaCl 10, BAPTA 10, Hepes 10, K2ATP2 and GTP 0.25; pH adjusted to 7.35 with NaOH. The bath solution contained (mM): sodium gluconate 100, KCl 2.5, MgCl2 1, Hepes 5 and EGTA 1.5; pH adjusted to 7.35 with NaOH. All the experiments were performed at room temperature (21-23° C.). Agar-bridge electrodes were used to avoid changes in junction potential. The currents were recorded using a WPC 100 (Warner Instruments) or Axopatch 2B (Axon Instruments, Union City, Calif., USA) patch-clamp amplifier. Data were filtered at 10 kHz (Axopatch 2B), digitized (VR-10B, Instrutech Corp.), and stored on videotapes. For the analysis of amplitude and open probability (Po), the data were filtered at 2.5 kHz (−3 db frequency with an 8-pole low-pass Bessel filter, Warner Instruments) and digitized at 5 kHz. For dwell-time analysis, the data were filtered at 10 kHz and digitized at 50 kHz.
Single-channel analysis. Single-channel current amplitude and Po were estimated from all-point current amplitude histograms (Channel 2 software kindly provided by Michael Smith, Australian National University, Can berra, Australia) and fitted to Gaussian densities (Origin, OriginLab Corp., Northampton, Mass., USA). For current-voltage relationships, the amplitudes were determined by fitting a Gaussian curve to an all-point histogram. Po was determined using unedited segments of data, which were typically 1-5 min long. For multiple channel patches, the mean Po was measured as nPo, where n is the number of channels in the patch. Chord conductance was measured at +60 or −60 mV. Slope conductance was determined by linear fits to current-voltage data between +20 and +100 mV or −20 and −100 mV.
Next we recorded single-channel currents from the cloned TRPV1 in excised patches. […] (Premkumar et al. 2002.)
Next we recorded single-channel currents using outside-out patches from oocytes expressing TRPV1.

[1] = oocytes expressing TRPV1, +60 mV

T1 sequence (O35433 whole entry): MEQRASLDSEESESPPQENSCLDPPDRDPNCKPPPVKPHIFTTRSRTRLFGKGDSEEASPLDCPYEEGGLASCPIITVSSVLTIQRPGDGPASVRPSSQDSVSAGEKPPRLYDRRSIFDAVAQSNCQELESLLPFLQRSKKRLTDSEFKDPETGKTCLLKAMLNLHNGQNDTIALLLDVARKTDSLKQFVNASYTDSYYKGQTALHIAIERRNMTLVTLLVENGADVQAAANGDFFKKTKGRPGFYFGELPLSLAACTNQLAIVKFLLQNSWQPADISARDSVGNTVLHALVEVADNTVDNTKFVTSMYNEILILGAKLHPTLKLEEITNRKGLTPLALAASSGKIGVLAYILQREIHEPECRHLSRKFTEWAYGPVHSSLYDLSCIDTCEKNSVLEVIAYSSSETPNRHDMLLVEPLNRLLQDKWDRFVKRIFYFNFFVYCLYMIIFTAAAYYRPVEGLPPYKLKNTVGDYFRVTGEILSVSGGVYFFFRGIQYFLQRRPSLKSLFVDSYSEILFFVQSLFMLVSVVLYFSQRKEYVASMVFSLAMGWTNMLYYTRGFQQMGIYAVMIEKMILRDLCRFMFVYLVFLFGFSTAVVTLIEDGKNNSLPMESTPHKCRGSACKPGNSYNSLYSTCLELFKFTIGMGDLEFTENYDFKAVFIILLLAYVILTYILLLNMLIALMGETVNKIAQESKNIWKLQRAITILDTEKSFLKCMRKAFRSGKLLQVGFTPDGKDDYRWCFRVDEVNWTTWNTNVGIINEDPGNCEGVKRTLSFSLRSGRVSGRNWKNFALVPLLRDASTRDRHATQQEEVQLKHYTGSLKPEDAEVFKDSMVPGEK
T2 sequence (O35433 whole entry): as above

Row | Structure (SMILES) | reversibility of induced current (native TRPV1; capsaicin 1 μM) | activation phase of whole-cell current (native TRPV1; capsaicin 1 μM) | neurons responding to capsaicin (native TRPV1; small diameter cultured DRG neurons) | single-channel conductance (cloned TRPV1; +60 mV) | single-channel current amplitude (cloned TRPV1; +60 mV) | Po (cloned TRPV1; +60 mV) | single-channel conductance (cloned TRPV1; −60 mV) | single-channel current amplitude (cloned TRPV1; −60 mV) | Po (cloned TRPV1; −60 mV) | activation phase of whole-cell current (native TRPV1; RTX 10 nM) | activation phase of whole-cell current (native TRPV1; RTX 100 nM) | current amplitudes of multiple conductance states (cloned TRPV1; [1]) | single-channel conductance of multiple conductance states (cloned TRPV1; [1])
1 | COc1cc(CNC(=O)CCCC/C=C/C(C)C)ccc1O [capsaicin] | readily reversible | 7.14 ± 0.42 s | More than 70% | 95.3±1.7 pS | 5.71±0.1 pA | 0.4±0.03 | 41.8±1.3 pS | 2.52±0.08 pA | 0.14±0.01 |  |  |  | 
2 | C=C(C)[C@]12C[C@@H](C)[C@@]34O[C@](Cc5ccccc5)(O[C@@H]1[C@@H]3C=C(COC(=O)Cc1ccc(O)c(OC)c1)C[C@]1(O)C(=O)C(C)=C[C@@H]41)O2 [RTX, resiniferatoxin] | could not be reversed readily |  |  | 103.3±0.83 pS | 6.19±0.05 pA | 0.88±0.03 | 43±2.8 pS | 2.59±0.17 pA | 0.83±0.05 | 69 ± 10.9 s | 29.35 ± 2.65 s | 3.5 pA and 5.3 pA and 6.9 pA | 58 pS and 88 pS and 115 pS
